Common to all, as to assay type: cell-based
Assay [1] concerns SARS-CoV-2 Delta (B.1.617.2). Kind of assay: microbe, parasite or virus in culture.
The test system of assay [2] is SARS-CoV-2 Omicron (B.1.1.529). Kind of assay: microbe, parasite or virus in culture.
Assay [3] has as its system SARS-CoV-2 Delta (B.1.617.2). Kind of assay: CPE assay, neutral red, Vero E6 cells with 2 μM CP-100356, Delta.

“And” between values parts separate entries of the source, which are not always exact repeats. Identical values can stand only once.

`COC(=O)/C=C/C(=O)NNC(=O)CCc1ccccc1C(=O)N[C@H](C)c1cccc2ccccc12` [Compound 7, methyl(R,E)-4-(2-(3-(2-((1-(naphthalen-1 yl)ethyl)carbamoyl)phenyl)propanoyl)hydrazineyl)-4-oxobut-2-enoate]: the “Virus Titer” value in assay [1] was 4.5 CCID50/mL (Log10) and 4.7 CCID50/mL (Log10) and 5.0 CCID50/mL (Log10); in assay [2], 2.5 CCID50/mL (Log10) and 3.0 CCID50/mL (Log10). Further, the “Percent Cytopathic Effect (Neutral Red)” value in assay [3] is 49.9% and 76.0% and 99.5% and 99.2%.
